Source: patent US9597271B2, “Cosmetic compositions and methods” (The Procter & Gamble Company, priority 2013, dated 2017)
“And” between values parts separate entries of the source, which are not always exact repeats. Equal entries are not always repeated.

Key:
[1] = target: T1, 20S proteasome (Mus musculus, UniProt O55234); assay: Proteasomal protease in vitro assay (ProteasomeGlo, Suc-LLVY luminogenic substrate) in B16 melanoma cells; format: cell-based; details: for Fold Change Over Control (luminescence): B16 melanoma cells; for Ricinoleate concentration at which synergy with niacinamide is statistically significant: combined with 250 μM niacinamide
T1 construct: endogenous in cells; host or cells: B16 melanoma cells (lysate after 20-24 h treatment)
T1 sequence (O55234 60-264): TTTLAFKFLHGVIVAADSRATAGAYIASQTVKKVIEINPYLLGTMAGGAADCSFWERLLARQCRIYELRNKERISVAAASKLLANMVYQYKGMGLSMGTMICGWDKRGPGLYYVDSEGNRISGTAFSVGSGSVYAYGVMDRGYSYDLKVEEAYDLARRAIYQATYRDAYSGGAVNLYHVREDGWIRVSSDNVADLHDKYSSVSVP
Method: The following proteasomal protease in vitro assay was employed for evaluating activity associated with this pathway. Cultures of B16 melanoma cells (about 25% confluence) were treated with a culture media (Dulbecco's Modified Eagle Medium, 11995-065 Life technologies supplemented with 5% Fetal Bovine Serum, 30-2020, American Tissue Culture Collection and 1% Penicillin/streptomycin, 15140, Life Technologies) and one of 1) a vehicle (DMSO) containing niacinamide, 2) a vehicle (DMSO) containing one of glycerol ricinoleate, sodium ricinoleate and butyl acetyl ricinoleate at varying dilutions, 3) a vehicle (DMSO) containing a combination of niacinamide and one of the ricinoleate compounds listed above, and 4) a vehicle (DMSO) containing 2-hexyl-decanol as a positive control. The final dilution of DMSO in the culture medium was 1% in all instances. The treated melanoma cells were incubated in multi-well plates at 37° C. in a CO2 incubator for a period of 20 to 24 hours. The treated cells were thereafter lyzed by removing the culture medium and replacing it with 100 uL/well of CellGlo lysis reagent (available from Promega, Wis., USA) followed by incubation at room temperature for about 10 minutes. A luminogenic substrate containing a Suc-LLVY peptide sequence recognized by the 20S proteasome was added to the B16 cultures, and the mixtures were incubated in multi-well plates at a temperature of 25° C. for approximately 10 minutes. Luminescence counts (a unit less measurement from the plate reader) from developing the cleaved substrate with luciferase detection system (ProteasomeGlo® from Promega, Madison, Wis.) was measured in an Envision Plate Reader (Perkin Elmer, Waltham, Mass.). Other plate luminometer/luminescence readers may also be used as known in the art.
Luminescence counts for treatment groups were divided by the luminescence counts from the vehicle control (1% DMSO, as diluted in the culture medium). […] 2-hexyldecanol, a known skin tone agent, was also previously found to activate this proteasomal chymotryptic protease activity. See, e.g., Hakozaki et al., A regulator of ubiquitin-proteasome activity, 2-hexyldecanol, suppresses melanin synthesis and the appearance of facial hyperpigmented spots, British Journal of Dermatology 2013, 169 (Supp 2), pp 39-44.

[2] = target: T1, 20S proteasome; details: previously found, Hakozaki et al. 2013; cited from earlier work
[3] = vitamin B3 compound alone, 250 uM, B16 cells, average of 3 replicates
[4] = experiment #1, N=3, 20 to 24 hours, DMSO vehicle
[5] = experiment #2, N=3, 20 to 24 hours, DMSO vehicle
[6] = ricinoleate compound alone, 0.008 w/v %, B16 cells
[7] = ricinoleate compound alone, 0.000064 w/v %, B16 cells
[8] = ricinoleate compound alone, 0.00032 w/v %, B16 cells
[9] = ricinoleate compound alone, 0.0016 w/v %, B16 cells

Row | Net Luminescence (treatment luminescence counts − vehicle control luminescence counts) [1, 3] | Fold Change Over Control (luminescence) ([1]; Avg. of experiments #1 and #2) | Fold Change Over Control (luminescence) [1, 4] | Fold Change Over Control (luminescence) [1, 5] | Net Luminescence (treatment luminescence counts − vehicle control luminescence counts) [1, 6] | Net Luminescence (treatment luminescence counts − vehicle control luminescence counts) [1, 7] | Net Luminescence (treatment luminescence counts − vehicle control luminescence counts) [1, 8] | Net Luminescence (treatment luminescence counts − vehicle control luminescence counts) [1, 9] | Compound | other results
1 | 162 |  |  |  |  |  |  |  | COC(=O)c1cccnc1 [Methyl niconate, methyl niconate] | 
2 |  | 1.16 | 1.15 | 1.17 |  |  |  |  | CCCCCCCCC(CO)CCCCCC (stereo not shown) [2-hexyldecanol, reference compound] | Activation of proteasomal chymotryptic protease activity (in words) [2]: activate
3 |  |  |  |  | 4222 |  |  |  | CCCCCC[C@@H](O)C/C=C\CCCCCCCC(=O)OC [Methyl ricinoleate, methyl ricinoleate] | Ricinoleate concentration at which synergy with niacinamide is statistically significant ([1]; B16 cells): 0.008%
4 |  | 1.24 | 1.26 | 1.21 | 2164 | 123 | 878 | 1805 | CCCCCC[C@@H](O)C/C=C\CCCCCCCC(=O)[O-].[Na+] [Sodium ricinoleate, sodium ricinoleate] | 
5 |  | 1.29 | 1.32 | 1.26 | 2439 | 1224 | 2164 | 2357 | CCCCCC[C@H](C/C=C\CCCCCCCC(=O)OCCCC)OC(C)=O [Butyl acetyl ricinoleate, butyl acetyl ricinoleate] | Ricinoleate concentration at which synergy with niacinamide is statistically significant ([1]; B16 cells): ≥ 0.00032%
6 | 303 |  |  |  |  |  |  |  | O=C(O)c1cccnc1 [Nicotinic acid, nicotinic acid] | 

The next lines start with the compound.

Row | Compound | Net Luminescence (treatment luminescence counts − vehicle control luminescence counts) [1, 3] | Fold Change Over Control (luminescence) ([1]; Avg. of experiments #1 and #2) | Fold Change Over Control (luminescence) [1, 4] | Fold Change Over Control (luminescence) [1, 5] | Net Luminescence (treatment luminescence counts − vehicle control luminescence counts) [1, 6] | Net Luminescence (treatment luminescence counts − vehicle control luminescence counts) [1, 7] | Net Luminescence (treatment luminescence counts − vehicle control luminescence counts) [1, 8] | Net Luminescence (treatment luminescence counts − vehicle control luminescence counts) [1, 9] | other results
7 | OCc1cccnc1 [3-pyridinemethanol] | 105 |  |  |  |  |  |  |  | 
8 | NC(=O)c1cccnc1 [Niacinamide, niacinamide] | 158 (4×) and 257 (8×) and 1503 |  |  |  |  |  |  |  | Activation of proteasomal protease activity, single agent (in words) ([1]; B16 cells): lower level of activation
9 | nicotinamide ribose | 392 |  |  |  |  |  |  |  | 
10 | CCCCCC[C@@H](O)C/C=C\CCCCCCCC(=O)OCC(O)CO (stereo partly shown) [Glyceryl ricinoleate, glyceryl ricinoleate] |  | 1.17 | 1.15 | 1.18 | 867 | 123 | 534 | 839 | Net Luminescence (treatment luminescence counts − vehicle control luminescence counts) ([1]; ricinoleate compound alone, 0.00032 w/v %, B16 cells, listed as GR): 287 and 518; Net Luminescence (treatment luminescence counts − vehicle control luminescence counts) ([1]; ricinoleate compound alone, 0.0016 w/v %, B16 cells, listed as GR): 745 and 1258; Net Luminescence (treatment luminescence counts − vehicle control luminescence counts) ([1]; ricinoleate compound alone, 0.008 w/v %, B16 cells, listed as GR): 789 and 1125
